# Assay results from patent US8802597B2, “Herbicidal pyrimidines” (E I du Pont de Nemours and Company, priority 2003, dated 2014).
# How the values were obtained:
# Experiment in all cases: Test C pre/postemergence
# Assay type in all cases: in vivo
# soybean (Glycine max) = conditions: for Plant response rating (scale of 0 to 100), Soybean / Soybean plant response rating: Postemergence; for Soybean plant response rating: scale 0 to 100 (0 no effect, 100 complete control); for Plant response rating, Soybean: Preemergence
# Summary of the method: (§1)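 Percent control is a visual rating (0 none, 100 complete) taken against untreated plants after 12 to 14 days of greenhouse growth. Applications were made preemergence to seeded pots and postemergence to plants at the 1- to 4-leaf stage, in a non-phytotoxic surfactant-containing solvent.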
# [1] = system: common (oilseed) sunflower (Helianthus annuus); conditions: Preemergence
# Summary of the method: as §1
# [2] = system: Surinam grass (Brachiaria decumbens); conditions: for Plant response rating (scale of 0 to 100), Surinam Grass / Surinam Grass plant response rating: Postemergence; for Surinam Grass plant response rating: scale 0 to 100 (0 no effect, 100 complete control); for Plant response rating, Surinam Grass: Preemergence
# Summary of the method: as §1
# [3] = system: pigweed (Amaranthus retroflexus); conditions: for Plant response rating (scale of 0 to 100), Pigweed / Pigweed plant response rating: Postemergence; for Pigweed plant response rating: scale 0 to 100 (0 no effect, 100 complete control); for Plant response rating, Pigweed: Preemergence
# Summary of the method: as §1
# kochia (Kochia scoparia) = conditions: for Plant response rating (scale of 0 to 100), Kochia / Kochia plant response rating: Postemergence; for Kochia plant response rating: scale 0 to 100 (0 no effect, 100 complete control); for Plant response rating, Kochia: Preemergence
# Summary of the method: as §1
# [4] = system: crabgrass (Digitaria sanguinalis); conditions: for Plant response rating (scale of 0 to 100), Crabgrass / Crabgrass plant response rating: Postemergence; for Crabgrass plant response rating: scale 0 to 100 (0 no effect, 100 complete control); for Plant response rating, Crabgrass: Preemergence
# Summary of the method: as §1
# [5] = system: johnsongrass (Sorghum halepense); conditions: for Johnsongrass plant response rating: Postemergence, scale 0 to 100 (0 no effect, 100 complete control); for Plant response rating, Johnsongrass: Preemergence
# Summary of the method: as §1
# [6] = system: goosegrass (Eleusine indica); conditions: for Plant response rating (scale of 0 to 100), Goosegrass / Goosegrass plant response rating: Postemergence; for Goosegrass plant response rating: scale 0 to 100 (0 no effect, 100 complete control); for Plant response rating, Goosegrass: Preemergence
# Summary of the method: as §1
# [7] = system: morningglory (Ipomoea coccinea); conditions: for Plant response rating (scale of 0 to 100), Morningglory / Morningglory plant response rating: Postemergence; for Morningglory plant response rating: scale 0 to 100 (0 no effect, 100 complete control); for Plant response rating, Morningglory: Preemergence
# Summary of the method: as §1
# [8] = system: bermudagrass (Cynodon dactylon); conditions: for Plant response rating (scale of 0 to 100), Bermudagrass / Bermudagrass plant response rating: Postemergence; for Bermudagrass plant response rating: scale 0 to 100 (0 no effect, 100 complete control); for Plant response rating, Bermudagrass: Preemergence
# Summary of the method: as §1
# [9] = system: woolly cupgrass (Eriochloa villosa); conditions: for Plant response rating (scale of 0 to 100), Cupgrass, Woolly / Cupgrass, Woolly plant response rating: Postemergence; for Cupgrass, Woolly plant response rating: scale 0 to 100 (0 no effect, 100 complete control); for Plant response rating, Cupgrass, Woolly: Preemergence
# Summary of the method: as §1
# [10] = system: giant foxtail (Setaria faberii); conditions: for Plant response rating (scale of 0 to 100), Foxtail, Giant / Foxtail, Giant plant response rating: Postemergence; for Foxtail, Giant plant response rating: scale 0 to 100 (0 no effect, 100 complete control); for Plant response rating, Foxtail, Giant: Preemergence
# Summary of the method: as §1
# [11] = 16 g ai/ha, scale 0 to 100, 0 no effect, 100 complete control
# [12] = 31 g ai/ha, scale 0 to 100, 0 no effect, 100 complete control
# [13] = 62 g ai/ha, scale 0 to 100, 0 no effect, 100 complete control
smiles,measurement,setting,value
CCOC(=O)C(OC(C)=O)c1nc(C2CC2)nc(N)c1Br (centres unmarked) [Compound 47],"Plant response rating (scale of 0 to 100), Soybean",soybean (Glycine max); 16 g ai/ha,20
same,"Plant response rating (scale of 0 to 100), Soybean",soybean (Glycine max); 31 g ai/ha,40
same,Soybean plant response rating,soybean (Glycine max); 62 g ai/ha,65
same,Soybean plant response rating,soybean (Glycine max); 125 g ai/ha,75
same,"Plant response rating, Soybean",soybean (Glycine max); [11],0
same,"Plant response rating, Soybean",soybean (Glycine max); [12],0
same,"Plant response rating, Soybean",soybean (Glycine max); [13],0
same,"Plant response rating, Soybean","soybean (Glycine max); 125 g ai/ha, scale 0 to 100",0
same,"Plant response rating, Sunflower",[1]; [11],0
same,"Plant response rating, Sunflower",[1]; [12],0
same,"Plant response rating, Sunflower",[1]; [13],20
same,"Plant response rating, Sunflower","[1]; 125 g ai/ha, scale 0 to 100",100
same,"Plant response rating (scale of 0 to 100), Surinam Grass",[2]; 16 g ai/ha,0
same,"Plant response rating (scale of 0 to 100), Surinam Grass",[2]; 31 g ai/ha,0
same,Surinam Grass plant response rating,[2]; 62 g ai/ha,0
same,Surinam Grass plant response rating,[2]; 125 g ai/ha,20
same,"Plant response rating, Surinam Grass",[2]; [11],0
same,"Plant response rating, Surinam Grass",[2]; [12],0
same,"Plant response rating, Surinam Grass",[2]; [13],0
same,"Plant response rating, Surinam Grass","[2]; 125 g ai/ha, scale 0 to 100",0
same,"Plant response rating (scale of 0 to 100), Pigweed",[3]; 16 g ai/ha,0
same,"Plant response rating (scale of 0 to 100), Pigweed",[3]; 31 g ai/ha,15
same,Pigweed plant response rating,[3]; 62 g ai/ha,45
same,Pigweed plant response rating,[3]; 125 g ai/ha,70
same,"Plant response rating, Pigweed",[3]; [11],0
same,"Plant response rating, Pigweed",[3]; [12],80
same,"Plant response rating, Pigweed",[3]; [13],85
same,"Plant response rating, Pigweed","[3]; 125 g ai/ha, scale 0 to 100",85
same,"Plant response rating (scale of 0 to 100), Kochia",kochia (Kochia scoparia); 16 g ai/ha,0
same,"Plant response rating (scale of 0 to 100), Kochia",kochia (Kochia scoparia); 31 g ai/ha,0
same,Kochia plant response rating,kochia (Kochia scoparia); 62 g ai/ha,20
same,Kochia plant response rating,kochia (Kochia scoparia); 125 g ai/ha,100
same,"Plant response rating, Kochia",kochia (Kochia scoparia); [11],0
same,"Plant response rating, Kochia",kochia (Kochia scoparia); [13],0
same,"Plant response rating, Kochia","kochia (Kochia scoparia); 125 g ai/ha, scale 0 to 100",100
same,"Plant response rating (scale of 0 to 100), Crabgrass",[4]; 16 g ai/ha,0
same,"Plant response rating (scale of 0 to 100), Crabgrass",[4]; 31 g ai/ha,0
same,Crabgrass plant response rating,[4]; 62 g ai/ha,0
same,Crabgrass plant response rating,[4]; 125 g ai/ha,20
same,"Plant response rating, Crabgrass",[4]; [11],20
same,"Plant response rating, Crabgrass",[4]; [12],100
same,"Plant response rating, Crabgrass",[4]; [13],100
same,"Plant response rating, Crabgrass","[4]; 125 g ai/ha, scale 0 to 100",100
same,Johnsongrass plant response rating,[5]; 62 g ai/ha,0
same,Johnsongrass plant response rating,[5]; 125 g ai/ha,0
same,"Plant response rating, Johnsongrass",[5]; [11],0
same,"Plant response rating, Johnsongrass",[5]; [12],0
same,"Plant response rating, Johnsongrass",[5]; [13],0
same,"Plant response rating, Johnsongrass","[5]; 125 g ai/ha, scale 0 to 100",0
same,"Plant response rating (scale of 0 to 100), Goosegrass",[6]; 16 g ai/ha,0
same,"Plant response rating (scale of 0 to 100), Goosegrass",[6]; 31 g ai/ha,0
same,Goosegrass plant response rating,[6]; 62 g ai/ha,0
same,Goosegrass plant response rating,[6]; 125 g ai/ha,0
same,"Plant response rating, Goosegrass",[6]; [11],0
same,"Plant response rating, Goosegrass",[6]; [12],45
same,"Plant response rating, Goosegrass",[6]; [13],85
same,"Plant response rating, Goosegrass","[6]; 125 g ai/ha, scale 0 to 100",90
same,"Plant response rating (scale of 0 to 100), Morningglory",[7]; 16 g ai/ha,20
same,"Plant response rating (scale of 0 to 100), Morningglory",[7]; 31 g ai/ha,35
same,Morningglory plant response rating,[7]; 62 g ai/ha,40
same,Morningglory plant response rating,[7]; 125 g ai/ha,65
same,"Plant response rating, Morningglory",[7]; [11],0
same,"Plant response rating, Morningglory",[7]; [12],0
same,"Plant response rating, Morningglory",[7]; [13],70
same,"Plant response rating, Morningglory","[7]; 125 g ai/ha, scale 0 to 100",100
same,"Plant response rating (scale of 0 to 100), Bermudagrass",[8]; 16 g ai/ha,0
same,"Plant response rating (scale of 0 to 100), Bermudagrass",[8]; 31 g ai/ha,0
same,Bermudagrass plant response rating,[8]; 62 g ai/ha,0
same,Bermudagrass plant response rating,[8]; 125 g ai/ha,15
same,"Plant response rating, Bermudagrass",[8]; [11],0
same,"Plant response rating, Bermudagrass",[8]; [12],0
same,"Plant response rating, Bermudagrass",[8]; [13],0
same,"Plant response rating, Bermudagrass","[8]; 125 g ai/ha, scale 0 to 100",95
same,"Plant response rating (scale of 0 to 100), Cupgrass, Woolly",[9]; 16 g ai/ha,0
same,"Plant response rating (scale of 0 to 100), Cupgrass, Woolly",[9]; 31 g ai/ha,0
same,"Cupgrass, Woolly plant response rating",[9]; 62 g ai/ha,0
same,"Cupgrass, Woolly plant response rating",[9]; 125 g ai/ha,0
same,"Plant response rating, Cupgrass, Woolly",[9]; [11],0
same,"Plant response rating, Cupgrass, Woolly",[9]; [12],0
same,"Plant response rating, Cupgrass, Woolly",[9]; [13],0
same,"Plant response rating, Cupgrass, Woolly","[9]; 125 g ai/ha, scale 0 to 100",0
same,"Plant response rating (scale of 0 to 100), Foxtail, Giant",[10]; 16 g ai/ha,0
same,"Plant response rating (scale of 0 to 100), Foxtail, Giant",[10]; 31 g ai/ha,0
same,"Foxtail, Giant plant response rating",[10]; 62 g ai/ha,0
same,"Foxtail, Giant plant response rating",[10]; 125 g ai/ha,0
same,"Plant response rating, Foxtail, Giant",[10]; [11],0
same,"Plant response rating, Foxtail, Giant",[10]; [12],0
same,"Plant response rating, Foxtail, Giant",[10]; [13],0
same,"Plant response rating, Foxtail, Giant","[10]; 125 g ai/ha, scale 0 to 100",20
